Laboratory results from patent US20260234183A1, “SOLID STATE FORMS OF FOSGONIMETON AND SALTS THEREOF” (ASSIA CHEMICAL INDUSTRIES LTD., priority 2023, published 2026).
“Also recorded” adds a separate entry of the source. Structures can show the parent of a compound that is named as a salt. Square brackets hold non-standard residues; d marks the D form. Peptide text beside a SMILES is read from it. * marks the point of attachment. pY = N[C@@H](Cc1ccc(OP(=O)(O)O)cc1)C(=O)O; Hexanoyl = CCCCCC(=O)*; Ahx = NCCCCCC(=O)O

Key:
Format in all cases: physicochemical
[1] = Heating stress test, XRPD analysis; conditions: 100° C./60 minutes
Method: (§1) Sample is applied directly on a silicon plate holder. The X-ray powder diffraction pattern was measured with Philips X′Pert PRO X-ray powder diffractometer, equipped with Cu irradiation source=1.54184 Å (Ångström), X'Celerator (2.022° 2θ) detector. Scanning parameters: angle range: 3-40 deg., step size 0.0167, time per step 37 s, continuous scan.
A sample of Fosgonimeton mono sodium salt form N2 was subjected to heating to 100° C. for 60 minutes.
A sample of Fosgonimeton mono sodium salt form N5 was subjected to heating to 100° C. for 60 minutes.
A sample of Fosgonimeton mono potassium salt form K1 was subjected to heating to 100° C. for 60 minutes.
A sample of Fosgonimeton form 1 was subjected to heating to 100° C. for 60 minutes.

[2] = Pressure stress test (Specac Hydraulic Press), XRPD analysis; conditions: 2 tons/2 minutes
Method: as §1
A sample of Fosgonimeton mono sodium salt form N2 was subjected to a pressure of 2 ton (Specac Hydraulic Press, set to 2 tons).
A sample of Fosgonimeton mono sodium salt form N5 was subjected to a pressure of 2 ton (Specac Hydraulic Press, set to 2 tons).
A sample of Fosgonimeton mono potassium salt form K1 was subjected to a pressure of 2 tons (Specac Hydraulic Press, set to 2 tons).
A sample of Fosgonimeton form 1 was subjected to a pressure of 2 tons (Specac Hydraulic Press, set to 2 tons).

[3] = Slurry experiments in solvent, XRPD analysis after filtration; conditions: for XRPD after slurry experiments: various solvents, ambient temperature, 1 or 7 days
Method: as §1
(§2) Samples of Fosgonimeton mono sodium salt form N2 were subjected to slurry and to sauna conditions in various conditions. In the slurry experiments, 50 mg of the sample is placed in a 2 mL glass vial with 0.5 mL of solvent. Obtained suspension is stirred at ambient temperature for 1 or 7 days. XRPD analysis is performed on crystalline material after filtration. In the sauna experiments, 50 mg of crystalline material is placed in an Eppendorf tube. 0.5 mL of solvent is placed in a sealed 10 mL glass vial, along with Eppendorf tube. Crystalline material is checked by XRPD analysis after 1 or 7 days.
as §2, with “N5” for “N2”
as §2, with “potassium” for “sodium”, “K1” for “N2”
as §2, with “Fosgonimeton” for “Fosgonimeton mono sodium salt”, “form 1” for “form N2”, “to Sauna” for “to sauna”

[4] = Sauna experiments (solvent vapour in sealed vial), XRPD analysis; conditions: for XRPD after sauna experiments: various solvents, 1 or 7 days
Method: as §1, §2
as §2, with “N5” for “N2”
as §2, with “potassium” for “sodium”, “K1” for “N2”
as §2, with “Fosgonimeton” for “Fosgonimeton mono sodium salt”, “form 1” for “form N2”, “to Sauna” for “to sauna”

With `CCCCCC(=O)N[C@@H](Cc1ccc(OP(=O)(O)O)cc1)C(=O)N[C@H](C(=O)NCCCCCC(N)=O)[C@@H](C)CC` [Fosgonimeton mono potassium salt form K1, Fosgonimeton mono potassium salt] (Hexanoyl-[pY]-Ile-[Ahx]-NH2) the “XRPD after Heating” value ([1]; mono potassium salt) was “no polymorphic conversion; also recorded: No polymorphic change”, the “XRPD after Pressure” value ([2]; mono potassium salt) was “no polymorphic conversion; also recorded: No polymorphic change” and the “XRPD after Slurry” value ([3]; 2-Propanol/20-25° C./7 days) was “No polymorphic change”. The “XRPD after Slurry” value ([3]; Acetone/20-25° C./7 days) was “No polymorphic change”, the “XRPD after Slurry” value ([3]; Ethanol, 96%/20-25° C./7 days) was “No polymorphic change” and the “XRPD after Slurry” value ([3]; Ethyl acetate/20-25° C./7 days) was “No polymorphic change”. For the same compound, the “XRPD after slurry experiments” value [3] was “no change in the starting material”, the “XRPD after Sauna” value ([4]; 2-Propanol/20-25° C./7 days) was “No polymorphic change” and the “XRPD after Sauna” value ([4]; Acetone/20-25° C./7 days) was “No polymorphic change”. The “XRPD after Sauna” value ([4]; Ethanol, 96%/20-25° C./7 days) was “No polymorphic change”, the “XRPD after Sauna” value ([4]; Ethyl acetate/20-25° C./7 days) was “No polymorphic change” and the “XRPD after Sauna” value ([4]; Water/20-25° C./7 days) was “No polymorphic change”. For the same compound, the “XRPD after sauna experiments” value [4] was “no change in the starting material”.

In the case of `CCCCCC(=O)N[C@@H](Cc1ccc(OP(=O)(O)O)cc1)C(=O)N[C@H](C(=O)NCCCCCC(N)=O)[C@@H](C)CC` [Fosgonimeton mono sodium salt form N5, Fosgonimeton mono sodium salt] (Hexanoyl-[pY]-Ile-[Ahx]-NH2), the “XRPD after Heating” value ([1]; mono sodium salt) is reported as “no polymorphic conversion”, the “XRPD after Pressure” value ([2]; mono sodium salt) is reported as “no polymorphic conversion; also recorded: No polymorphic change” and the “XRPD after Slurry” value ([3]; 2-Propanol/20-25° C./1 day) is reported as “No polymorphic change”. The “XRPD after Slurry” value ([3]; Acetone/20-25° C./7 days) was “No polymorphic change”, the “XRPD after Slurry” value ([3]; Ethyl acetate/20-25° C./1 day) was “No polymorphic change” and the “XRPD after slurry experiments” value [3] was “no change in the starting material”. The “XRPD after Sauna” value ([4]; 2-Propanol/20-25° C./7 days) was “No polymorphic change”, the “XRPD after Sauna” value ([4]; Ethanol, 96%/20-25° C./7 days) was “No polymorphic change” and the “XRPD after Sauna” value ([4]; Ethyl acetate/20-25° C./7 days) was “No polymorphic change”. The “XRPD after sauna experiments” value [4] was “no change in the starting material”.

For `CCCCCC(=O)N[C@@H](Cc1ccc(OP(=O)(O)O)cc1)C(=O)N[C@H](C(=O)NCCCCCC(N)=O)[C@@H](C)CC` [Fosgonimeton mono sodium salt form N2, Fosgonimeton mono sodium salt] (Hexanoyl-[pY]-Ile-[Ahx]-NH2), the “XRPD after Heating” value ([1]; mono sodium salt) was “no polymorphic conversion; also recorded: No polymorphic change”, the “XRPD after Pressure” value ([2]; mono sodium salt) was “no polymorphic conversion; also recorded: No polymorphic change” and the “XRPD after Slurry” value ([3]; 2-Propanol/20-25° C./1 day) was “No polymorphic change”. The “XRPD after Slurry” value ([3]; Acetone/20-25° C./1 day) was “No polymorphic change”, the “XRPD after Slurry” value ([3]; Acetone/20-25° C./7 days) was “No polymorphic change” and the “XRPD after Slurry” value ([3]; Ethanol, 96%/20-25° C./1 day) was “No polymorphic change”. For the same compound, the “XRPD after Slurry” value ([3]; Ethanol, 96%/20-25° C./7 days) was “No polymorphic change”, the “XRPD after Slurry” value ([3]; Ethyl acetate/20-25° C./1 day) was “No polymorphic change” and the “XRPD after Slurry” value ([3]; Water/20-25° C./7 days) was “No polymorphic change”. The “XRPD after slurry experiments” value [3] was “no change in the starting material”, the “XRPD after Sauna” value ([4]; 2-Propanol/20-25° C./7 days) was “No polymorphic change” and the “XRPD after Sauna” value ([4]; Acetone/20-25° C./7 days) was “No polymorphic change”. For the same compound, the “XRPD after Sauna” value ([4]; Ethanol, 96%/20-25° C./7 days) was “No polymorphic change”, the “XRPD after Sauna” value ([4]; Ethyl acetate/20-25° C./7 days) was “No polymorphic change” and the “XRPD after Sauna” value ([4]; Water/20-25° C./7 days) was “No polymorphic change”. For the same compound, the “XRPD after sauna experiments” value [4] was “no change in the starting material”.

In the case of `CCCCCC(=O)N[C@@H](Cc1ccc(OP(=O)(O)O)cc1)C(=O)N[C@H](C(=O)NCCCCCC(N)=O)[C@@H](C)CC` [Fosgonimeton form 1, [4-[(2S)-3-[[(2S,3S)-1-[(6-amino-6-oxohexyl)amino]-3-methyl-1-oxopentan-2-yl]amino]-2-(hexanoylamino)-3-oxopropyl]phenyl]dihydrogen phosphate] (Hexanoyl-[pY]-Ile-[Ahx]-NH2), the “XRPD after Heating” value [1] is reported as “no polymorphic conversion; also recorded: No polymorphic change”, the “XRPD after Pressure” value [2] is reported as “no polymorphic conversion; also recorded: No polymorphic change” and the “XRPD after Slurry” value ([3]; 2-Propanol/20-25° C./1 day) is reported as “No polymorphic change”. The “XRPD after Slurry” value ([3]; Acetone/20-25° C./1 day) was “No polymorphic change”, the “XRPD after Slurry” value ([3]; Ethanol, 96%/20-25° C./1 day) was “No polymorphic change” and the “XRPD after Slurry” value ([3]; Ethyl acetate/20-25° C./1 day) was “No polymorphic change”.
